Experimental data from PMC7845594, “Novel Immune Modulators Enhance Caenorhabditis elegans Resistance to Multiple Pathogens” (mSphere, 2021).
Several values for one entry are separate records, joined by “and”; a condition that tells them apart may be missing. Equal entries are not always repeated.

What was measured:
[1] = system: C. elegans exposed to P. aeruginosa strain PA14; experiment: P. aeruginosa slow-killing assay (agar); type: in vivo, Caenorhabditis elegans; details: for Rescue in slow killing on disruption of the PMK-1 MAPK pathway: pmk-1 or atf-7 RNAi; for Survival in slow-killing assay vs DMSO: wild-type young adult worms
Text: The finding that each of the compounds activated PMK-1/p38 MAPK targets was of interest, as this pathway is associated with enhanced immunity against multiple bacterial pathogens in agar-based C. elegans assays. Therefore, we tested whether these compounds could promote survival in an agar-based, high-colonization pathogenesis model known as slow killing. Loss of PMK-1 activity substantially compromises survival in the slow-killing assay ([16], [47]). Wild-type, young adult worms were exposed to P. aeruginosa strain PA14 on agar plates impregnated with each of the five compounds. […] To see whether this depended upon the PMK-1 pathway, LK32, LK38, and LK56 were retested in worms where RNAi was used to knock down pmk-1/MAPK or atf-7/ATF7 (a key transcription factor whose activity is modulated by PMK-1 [63, 64]) (Fig. 9; see Table S2 in the supplemental material for TD50 and overall statistical significance).
FIG 8 Four LK molecules extend C. elegans life span in the slow-killing assay. […] The data shown are from a representative replicate. Each of the three biological replicates was comprised of three plates per condition, with each plate containing ∼60 worms. Statistical significance was calculated using a log-rank test. Worms that left the surface of the plate were excluded from analysis (see Table S2 in the supplemental material for TD50 and exact P values).
FIG 9 Rescue in slow killing by a subset of LK compounds depends upon the PMK-1/p38 MAPK pathway. Wild-type L4 worms were reared on RNAi targeting pmk-1/p38 MAPK, atf-7/ATF-7, or empty vector and placed onto slow-killing plates containing DMSO or LK32 (A and B), LK38 (C and D), or LK56 (E and F) at 50 µM. Starting at 24 h, worms were scored every 12 h for survival until all worms perished. Each of the three biological replicates was comprised of three plates, each plate contained approximately 50 to 70 worms. Statistical significance was calculated using log-rank test (see Table S2 in the supplemental material for TD50 and exact P values). For vector RNAi, DMSO versus compound, P < 0.001 for LK38, LK56, and LK32.
Supplementary file : FIG S5 NSY-1 and SEK-1, upstream members of the PMK-1/p38 MAPK pathway, are required for LK38-mediated rescue. Young adult wild-type, nsy-1/MAP3K15(ag3), or sek-1/MAP2K6(km-4) mutants were exposed to P. aeruginosa in the slow-killing assay in the presence of DMSO or LK38. Data for each condition at each time point represent the average value for three plates from one representative replicate (of three replicates total). Each plate contained ∼60 worms. P values were calculated using a log-rank test (see Table S2 in the supplemental material for the TD50 and exact P values). For wild-type DMSO versus LK38 P < 0.001. No statistically significant difference was measured between LK38 and DMSO for either mutant. Download FIG S5, PDF file, 0.1 MB.
Slow-killing (SK) plates were made as previously reported ([92]). Compounds were added to molten SK agar before pouring plates. After solidifying, 40 µl of PA14 overnight culture was spread on plates before incubating plates at 37°C for 24 h, followed by 25°C for 24 h. 5-fluoro-2′-deoxyuridine (FUDR) (0.1 mg/ml) was dropped on plates 30 min prior to picking worms, to ensure nematode sterility. Fifty to seventy L4-stage, wild-type worms were picked onto plates and scored every 12 h after the first 24 h, until all worms were dead. Three biological replicates were performed.

[2] = system: glp-4(bn2) C. elegans exposed to P. aeruginosa PA14; experiment: P. aeruginosa liquid killing assay (effective rescue concentration); type: in vivo, Caenorhabditis elegans; details: glp-4(bn2) worms, ± 95% confidence interval
Experimental: For the first round of characterization, 69 novel small molecules previously selected on the basis of their ability to improve C. elegans survival during exposure to P. aeruginosa in liquid ([14]) were tested for the ability to interfere with bacterial growth. MICs were determined for each compound by growing P. aeruginosa strain PA14 in static culture in 384-well plates with serial 2-fold dilutions of compounds. No worms were used in these assays. Next, effective rescue concentrations (EC; defined as the minimum concentration that results in statistically significant survival, compared to dimethyl sulfoxide [DMSO]) ([15], [18]) were determined for each compound using the standard P. aeruginosa liquid killing assay. Sterile glp-4(bn2) worms were used in all liquid-based assays to limit artifacts (i.e., unlaid eggs will hatch and cause matricide).
FIG 1 LK molecules rescue C. elegans from P. aeruginosa in liquid killing. […] (B) Lipinski values for the five LK molecules, showing their molecular mass, predicted octanol-water partition coefficient, polar surface area, number of hydrogen donors and acceptors, and the number of rotatable bonds. (C) Minimum effective concentrations (EC) and 95% confidence interval, MICs (defined as the minimum concentration to prevent grown in LB media), and their ratio (MIC/EC). The minimum effective concentration was calculated from the lowest concentration that retained statistically significant rescue of glp-4(bn2) C. elegans, a temperature-sensitive sterile strain, from exposure to P. aeruginosa PA14. […] Compounds were added in serial 2-fold dilutions from 50 µM to 12.5 μM. *, P < 0.05; **, P < 0.01; ***, P < 0.001. P values were calculated using Student’s t test. At least six wells containing 20 worms each per condition per replicate were used for determination of liquid killing. EC values were calculated based on at least three biological replicates. Error bars represent the standard error of the mean.
Liquid killing of C. elegans was performed as previously described with some changes ([91]). In brief, an overnight culture of LB medium was inoculated with a single colony of Pseudomonas aeruginosa strain PA14. Then, 400 µl of culture was spread onto a 10-cm slow-kill agar plate ([91]) and grown for 24 h at 37°C, followed by 24 h at 25°C. Bacteria were scraped from the plate, resuspended in S Basal medium, and added to 384-well plates with small molecules dissolved in DMSO. Solution in wells contained a final concentration of 40% SK media, 59% S Basal medium, 1% DMSO, and small molecules. For all liquid-based killing assays, solvent control wells contained 1% DMSO. MgSO4 and CaCl2 (300 µM) and cholesterol (1.6 µg/ml) were added to aid in production of virulence factors. Worms were sorted into 384-well plates using a COPAS FlowSort (Union Biometrica, Holliston, MA), incubated at 25°C until the DMSO control was roughly 35 to 55% dead, washed four times using an EL406 microplate washer (BioTek, VT), and stained with 50 μl of Sytox Orange at 1 µM to fluorescently stain dead worms. Wells were imaged in bright-field and RFP channels using the BioTek Cytation5, followed by image analysis using the CellProfiler software package to calculate fraction of dead worms in each well. EC values were defined as the minimum concentration that provided statistically significant rescue. At least three biological replicates were performed.

[3] = vector RNAi, 50 µM, Fig 9 panels A-B, C, E
[4] = vector RNAi, 50 µM, Fig 9 panels D, F
[5] = wild-type worms, 50 µM, Fig 8 (DMSO 58.9)

Row | SMILES | TD50, slow killing ([1]; atf-7 RNAi, 50 µM, Fig 9) | TD50, slow killing ([1]; pmk-1 RNAi, 50 µM, Fig 9) | Rescue in slow killing on disruption of the PMK-1 MAPK pathway ([1]; 50 µM) | TD50, slow killing [1, 3] | TD50, slow killing [1, 4] | TD50, slow killing [1, 5] | Survival in slow-killing assay vs DMSO ([1]; 50 µM) | EC (minimum effective concentration giving statistically significant rescue) [2] | TD50, slow killing ([1]; N2 wild-type, Fig S5) | TD50, slow killing ([1]; nsy-1(ag3) mutant, Fig S5) | TD50, slow killing ([1]; sek-1(km4) mutant, Fig S5)
1 | O=c1cc(CNc2ccc(Br)cc2)nc2sccn12 [LK56] | 38.5 h | 38.0 h | retained at least partial ability to rescue | 59.9 h | 56.1 h | 60.5 h | improved survival | 7.3 ± 1.9 µM and 7.3 µM | – | – | –
2 | CNC(=O)Oc1c(Br)cc2sc(=O)oc2c1Br [LK34] | – | – | – | – | – | – | improved survival | 9.3 ± 4.4 µM and 9.3 µM | – | – | –
3 | CCN(CC)/N=N/c1ccc(C(=O)O)cc1 [LK35] | – | – | – | – | – | 57.5 h | not significant | 17.3 ± 6.1 µM | – | – | –
4 | COC(=O)/C=C/C(=O)Nc1ccccc1 [LK32] | 46.2 h | 45.6 h | retained at least partial ability to rescue | 59.1 h | – | – | improved survival | 32 ± 0.0 µM and 32 µM | – | – | –
5 | CN(C)/N=N/c1ccc(-c2cn(Cc3ccccc3)cn2)cc1 [LK38] | 36.8 h | 35.6 h | completely dependent upon the PMK-1/MAPK pathways | 65.2 h | 53.5 h | 59.5 h | improved survival | 6.7 ± 2.0 µM | 59.5 h | 26.5 h | 27.6 h
